# The NIST ThermoML archive (doi:10.1021/acs.jced.6b00261)
# ± gives the expanded uncertainty stated by the source.
# Conditions: Liquid, Frequency=8 MHz, Pulse-echo method
compound,measurement,setting,value
C[Si]1(C)O[Si](C)(C)O[Si](C)(C)O[Si](C)(C)O1 [octamethylcyclotetrasiloxane],speed of sound,"299.67 K, 14920 kPa",1006.8 ± 1.1 m/s
same,speed of sound,"299.79 K, 130 kPa",911.09 ± 1.3 m/s
same,speed of sound,"299.8 K, 520 kPa",913.77 ± 1.3 m/s
same,speed of sound,"299.81 K, 980 kPa",916.96 ± 1.3 m/s
same,speed of sound,"299.81 K, 1500 kPa",920.51 ± 1.3 m/s
same,speed of sound,"299.82 K, 1980 kPa",923.9 ± 1.3 m/s
same,speed of sound,"299.83 K, 3440 kPa",933.79 ± 1.2 m/s
same,speed of sound,"299.85 K, 6010 kPa",950.89 ± 1.2 m/s
same,speed of sound,"300.15 K, 10240 kPa",978.63 ± 1.2 m/s
same,speed of sound,"349.96 K, 26230 kPa",939.02 ± 1.2 m/s
same,speed of sound,"349.98 K, 14970 kPa",866.97 ± 1.2 m/s
same,speed of sound,"350 K, 10200 kPa",832.31 ± 1.3 m/s
same,speed of sound,"350.03 K, 6210 kPa",800.86 ± 1.4 m/s
same,speed of sound,"350.04 K, 1960 kPa",764.8 ± 1.4 m/s
same,speed of sound,"350.04 K, 3530 kPa",778.49 ± 1.4 m/s
same,speed of sound,"350.05 K, 960 kPa",755.62 ± 1.6 m/s
same,speed of sound,"350.05 K, 1480 kPa",760.43 ± 1.6 m/s
same,speed of sound,"350.06 K, 530 kPa",751.64 ± 1.5 m/s
same,speed of sound,"350.07 K, 120 kPa",747.75 ± 0.95 m/s
same,speed of sound,"350.35 K, 22660 kPa",915.86 ± 1.2 m/s
same,speed of sound,"399.62 K, 19680 kPa",784.97 ± 1.3 m/s
same,speed of sound,"399.63 K, 15100 kPa",749.46 ± 1.4 m/s
same,speed of sound,"399.64 K, 6070 kPa",667.98 ± 1.6 m/s
same,speed of sound,"399.64 K, 10120 kPa",706.83 ± 1.5 m/s
same,speed of sound,"399.68 K, 3610 kPa",641.86 ± 1.7 m/s
same,speed of sound,"399.69 K, 19290 kPa",782.02 ± 1.3 m/s
same,speed of sound,"399.7 K, 510 kPa",605.91 ± 1.9 m/s
same,speed of sound,"399.7 K, 1030 kPa",612.25 ± 1.9 m/s
same,speed of sound,"399.7 K, 1460 kPa",617.43 ± 1.9 m/s
same,speed of sound,"399.7 K, 2040 kPa",624.18 ± 1.7 m/s
same,speed of sound,"399.71 K, 120 kPa",600.99 ± 1.3 m/s
same,speed of sound,"449.63 K, 960 kPa",475.36 ± 2.7 m/s
same,speed of sound,"449.64 K, 130 kPa",461.18 ± 2.9 m/s
same,speed of sound,"449.64 K, 500 kPa",467.67 ± 2.7 m/s
same,speed of sound,"449.69 K, 1960 kPa",491.86 ± 2.4 m/s
same,speed of sound,"449.7 K, 1490 kPa",484.22 ± 2.6 m/s
same,speed of sound,"449.77 K, 3600 kPa",516.36 ± 2.2 m/s
same,speed of sound,"449.87 K, 5900 kPa",547.45 ± 2 m/s
same,speed of sound,"450 K, 10040 kPa",596.17 ± 1.8 m/s
same,speed of sound,"450.19 K, 15080 kPa",646.97 ± 1.7 m/s
same,speed of sound,"450.23 K, 16420 kPa",659.13 ± 1.6 m/s
same,speed of sound,"499.88 K, 3480 kPa",398.42 ± 2.9 m/s
same,speed of sound,"499.88 K, 6030 kPa",444.06 ± 2.4 m/s
same,speed of sound,"499.91 K, 2030 kPa",367.4 ± 3.4 m/s
same,speed of sound,"499.92 K, 330 kPa",321.35 ± 5.9 m/s
same,speed of sound,"499.92 K, 1490 kPa",354.75 ± 3.9 m/s
same,speed of sound,"499.93 K, 11150 kPa",515.95 ± 2 m/s
same,speed of sound,"499.94 K, 520 kPa",329.04 ± 5.9 m/s
same,speed of sound,"500 K, 10650 kPa",509.56 ± 2 m/s
same,speed of sound,"549.54 K, 5510 kPa",338.9 ± 3.5 m/s
same,speed of sound,"549.55 K, 5070 kPa",329.01 ± 3.5 m/s
same,speed of sound,"549.56 K, 4550 kPa",317.1 ± 3.7 m/s
same,speed of sound,"549.61 K, 3880 kPa",300.55 ± 3.8 m/s
same,speed of sound,"549.97 K, 6640 kPa",364.29 ± 3.5 m/s
